Source: patent US20240239861A1, “GLUCAGON-RECEPTOR SELECTIVE POLYPEPTIDES AND METHODS OF USE THEREOF” (i2O Therapeutics, Inc., priority 2016, published 2024)
Where a SMILES comes first, the peptide text is derived from it.

Tests used:
human GCGR = human GCGR (Homo sapiens, UniProt P47871); experiment: Peptide-receptor mediated cAMP accumulation (LANCE Ultra cAMP) in CHO-K1 cells transfected with human GCGR; assay type: cell-based; details: Table 3
human GLP-1R = human GLP-1R (Homo sapiens, UniProt P43220); experiment: Peptide-receptor mediated cAMP accumulation (LANCE Ultra cAMP) in CHO-K1 cells transfected with human GLP-1R; assay type: cell-based; details: hGLP1 pEC50 (cAMP mean (n = 3): 11 point curve starting at 1 nM, Table 3)
human GLP-1R, sequence (P43220 24-463): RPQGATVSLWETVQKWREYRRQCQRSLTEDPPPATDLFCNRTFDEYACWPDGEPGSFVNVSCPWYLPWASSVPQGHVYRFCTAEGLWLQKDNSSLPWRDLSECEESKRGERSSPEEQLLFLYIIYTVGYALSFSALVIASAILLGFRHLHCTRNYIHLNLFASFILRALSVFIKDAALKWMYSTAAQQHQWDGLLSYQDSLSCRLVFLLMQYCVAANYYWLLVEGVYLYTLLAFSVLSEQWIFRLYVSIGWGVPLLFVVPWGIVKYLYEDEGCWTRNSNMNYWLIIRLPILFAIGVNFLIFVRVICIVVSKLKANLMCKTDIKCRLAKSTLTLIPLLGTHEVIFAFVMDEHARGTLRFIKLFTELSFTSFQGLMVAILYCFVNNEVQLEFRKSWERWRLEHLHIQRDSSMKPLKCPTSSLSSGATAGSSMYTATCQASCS

human GCGR, sequence (P47871 26-477): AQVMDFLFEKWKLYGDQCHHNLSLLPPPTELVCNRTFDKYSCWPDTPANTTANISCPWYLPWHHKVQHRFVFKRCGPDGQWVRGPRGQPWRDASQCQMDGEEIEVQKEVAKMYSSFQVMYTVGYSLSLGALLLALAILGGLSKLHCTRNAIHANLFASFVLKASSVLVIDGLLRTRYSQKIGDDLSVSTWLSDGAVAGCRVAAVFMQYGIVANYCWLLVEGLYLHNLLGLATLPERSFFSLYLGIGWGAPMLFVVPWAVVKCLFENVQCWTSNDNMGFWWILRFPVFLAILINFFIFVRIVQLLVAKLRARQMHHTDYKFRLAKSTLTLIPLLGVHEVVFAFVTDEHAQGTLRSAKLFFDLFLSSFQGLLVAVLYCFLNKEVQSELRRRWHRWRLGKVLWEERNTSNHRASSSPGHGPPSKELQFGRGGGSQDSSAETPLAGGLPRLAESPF

| Structure (SMILES) | EC50 (human GCGR) [nM] | EC50 (human GLP-1R) [nM] |
| --- | --- | --- |
| CC(C)C[C@H](NC(=O)[C@H](Cc1c[nH]c2ccccc12)NC(=O)[C@H](CCCCN)NC(=O)[C@H](CO)NC(=O)[C@H](Cc1c[nH]cn1)NC(=O)[C@H](CC(=O)O)NC(=O)[C@H](CO)NC(=O)[C@@H](NC(=O)[C@H](Cc1ccccc1)NC(=O)[C@@H](NC(=O)CNC(=O)[C@H](Cc1c[nH]cn1)NC(=O)[C@H](CO)NC(=O)[C@@H](N)Cc1ccc(O)cc1)[C@@H](C)O)[C@@H](C)O)C(=O)N[C@@H](CC(=O)O)C(=O)N[C@@H](CO)C(=O)N[C@@H](C)C(=O)N[C@@H](CCCNC(=N)N)C(=O)N[C@@H](C)C(=O)N[C@@H](CCC(N)=O)C(=O)N[C@@H](CCC(=O)O)C(=O)N[C@@H](Cc1ccccc1)C(=O)N[C@H](C(=O)N[C@@H](CCCCN)C(=O)N[C@@H](Cc1c[nH]c2ccccc12)C(=O)N[C@@H](CC(C)C)C(=O)N[C@@H](CCC(=O)O)C(=O)N[C@@H](CC(=O)O)C(=O)N[C@@H](CCC(=O)O)C(=O)N1CCC[C@H]1C(=O)N[C@@H](CO)C(=O)N[C@@H](CO)C(=O)NCC(=O)N[C@@H](C)C(=O)N1CCC[C@H]1C(=O)N1CCC[C@H]1C(=O)N1CCC[C@H]1C(=O)N[C@@H](CO)C(=O)O)C(C)C [Compound A40] (H-YSHGTFTSDHSKWLDSARAQEFVKWLEDEPSSGAPPPS-OH; N-terminus assumed) | 0.0794 | > 1 |
| CC(C)C[C@H](NC(=O)[C@H](Cc1c[nH]c2ccccc12)NC(=O)[C@H](CCCCN)NC(=O)[C@H](CO)NC(=O)[C@H](Cc1c[nH]cn1)NC(=O)[C@H](CC(=O)O)NC(=O)[C@H](CO)NC(=O)[C@@H](NC(=O)[C@H](Cc1ccccc1)NC(=O)[C@@H](NC(=O)CNC(=O)[C@H](Cc1c[nH]cn1)NC(=O)[C@@H](NC(=O)[C@@H](N)Cc1ccc(O)cc1)[C@@H](C)O)[C@@H](C)O)[C@@H](C)O)C(=O)N[C@@H](CC(=O)O)C(=O)N[C@@H](CCC(=O)O)C(=O)N[C@@H](C)C(=O)N[C@@H](CCCNC(=N)N)C(=O)N[C@@H](C)C(=O)N[C@@H](CCC(N)=O)C(=O)N[C@@H](CCC(=O)O)C(=O)N[C@@H](Cc1ccccc1)C(=O)N[C@H](C(=O)N[C@@H](CCCCN)C(=O)N[C@@H](Cc1c[nH]c2ccccc12)C(=O)N[C@@H](CC(C)C)C(=O)N[C@@H](CCC(=O)O)C(=O)N[C@@H](CC(=O)O)C(=O)N[C@@H](CCC(=O)O)C(=O)N1CCC[C@H]1C(=O)N[C@@H](CO)C(=O)N[C@@H](CO)C(=O)NCC(=O)N[C@@H](C)C(=O)N1CCC[C@H]1C(=O)N1CCC[C@H]1C(=O)N1CCC[C@H]1C(=O)N[C@@H](CO)C(=O)O)C(C)C [Compound A41] (H-YTHGTFTSDHSKWLDEARAQEFVKWLEDEPSSGAPPPS-OH; N-terminus assumed) | 0.631 | > 1 |
| CC(C)C[C@H](NC(=O)[C@H](Cc1c[nH]c2ccccc12)NC(=O)[C@H](CCCCN)NC(=O)[C@H](CO)NC(=O)[C@H](Cc1ccc(O)cc1)NC(=O)[C@H](CC(=O)O)NC(=O)[C@H](CO)NC(=O)[C@@H](NC(=O)[C@H](Cc1ccccc1)NC(=O)[C@@H](NC(=O)CNC(=O)[C@H](Cc1c[nH]cn1)NC(=O)[C@@H](NC(=O)[C@@H](N)Cc1ccc(O)cc1)[C@@H](C)O)[C@@H](C)O)[C@@H](C)O)C(=O)N[C@@H](CC(=O)O)C(=O)N[C@@H](CO)C(=O)N[C@@H](CCCCN)C(=O)N[C@@H](CCCNC(=N)N)C(=O)N[C@@H](C)C(=O)N[C@@H](CCC(N)=O)C(=O)N[C@@H](CCC(=O)O)C(=O)N[C@@H](Cc1ccccc1)C(=O)N[C@H](C(=O)N[C@@H](CCCCN)C(=O)N[C@@H](Cc1c[nH]c2ccccc12)C(=O)N[C@@H](CC(C)C)C(=O)N[C@@H](CCC(=O)O)C(=O)N[C@@H](CC(=O)O)C(=O)N[C@@H](CCC(=O)O)C(=O)N1CCC[C@H]1C(=O)N[C@@H](CO)C(=O)N[C@@H](CO)C(=O)NCC(=O)N[C@@H](C)C(=O)N1CCC[C@H]1C(=O)N1CCC[C@H]1C(=O)N1CCC[C@H]1C(=O)N[C@@H](CO)C(=O)O)C(C)C [Compound A42] (H-YTHGTFTSDYSKWLDSKRAQEFVKWLEDEPSSGAPPPS-OH; N-terminus assumed) | 0.398 | > 1 |
